# Like-named read-outs stand apart in the source and are kept apart here.
# Columns and labels:
# Assay type in all cases: in vivo, male Sprague Dawley rats
# [1] = test system: blood glucose level in fasted and glucose-loaded rats; assay: Relationships between doses and reducing activity of the compound 4; conditions: for Blood glucose: ± SE
# Method: The animals used for the pharmacological studies were male Sprague Dawley rats exept otherwise noted. 1. Hypoglycemic activity in non-diabetic rats (screening test)
# (§1) The rats were fasted for 16 - 18 hours prior to the experiment and those weighing 140 - 160g were used. Glucose solution (100 mg/0.5ml/150g body weight) was subcutaneously injected on the fasted rats. Each of the present compounds was suspended in 1% carboxymethyl cellulose (CMC), and about 0.5 ml of the suspension (corresponding to 100 mg/kg of the compound per body weight) was orally administered. Blood samples were taken from the tail vein of the rats at 2 and 5 hours after the administration, and the blood glucose level in each sample (0.1 ml) was determined by the micro method of Momose as described in SOGO-RINSHO 11, 120 (1962).
# The compound 4 and tolbutamide were orally administered to the fasted and glucose-loaded rats in various doses.
# [2] = test system: blood glucose level in non-diabetic rats; assay: Blood glucose level in non-diabetic rats, oral administration for 10 days
# Method: (§2) These new compounds of the present invention are very useful as anti-diabetic agents, which is supported from the following pharmacological studies. The animals used for the pharmacological studies were male Sprague Dawley rats exept otherwise noted. 1. Hypoglycemic activity in non-diabetic rats (screening test)
# The compound suspended in 1% CMC was orally administered once a day for 10 days to healthy rats weighing 140-160g. The rats were fasted for 16-18 hours prior to the last administration. Blood samples were taken at 90 minutes after the last administration, and the blood glucose and serum FFA levels were determined, respectively.
# [3] = test system: blood glucose level in non-diabetic rats; assay: Hypoglycemic activity in non-diabetic rats (screening test); conditions: Rattus norvegicus, 100 mg/kg oral, fasted, glucose s.c.
# Method: as §2, §1
# 3,5-Dinitrophthalic acid is reduced with glucose to stable orange-red azo-compound via red hydroxyaminophthalic acid in basic media.
# To 0.5ml of water was added 0.1ml of blood and shaken to hemolyze, and to which was added 1.7ml of 0.06N barium hydroxide solution. To the resulting dark-brown solution was added 1.7ml of zinc sulfate solution (1g/dl), and which was shaken thoroughly and allowed to stand for 2-3min followed by centrifugation.
# One ml of 3,5-dinitrophthalic acid solution (1.5g of monopyridinium-3,5-dinitrophthalate in 500ml of water) and 1 ml of sodium carbonatesodium hyposulfite solution (125-25g/500ml) were added to 2ml of spernatant solution. The solution was heated at 100° C for 10 min. After cooling with running water for 3 min, water was added to make 20ml.
# To 2ml of water were added 3,5-dinitrophthalic acid solution and an alkaline solution, and the solution was treated as mentioned above.
# As the absorbance of reference at 450nm was adjusted to 0, the absorbance of sample corresponded to blood glucose level.
# [4] = test system: blood glucose level in streptozotocin-diabetic rats; assay: Hypoglycemic effect in streptozotocin-diabetic rats; conditions: for Blood glucose level Before: before (baseline); for Hypoglycemic effect in streptozotocin-diabetic rats (in words): oral
# Method: The animals used for the pharmacological studies were male Sprague Dawley rats exept otherwise noted. 1. […]
# The rats were fasted for 16 hours, and then streptozotocin was intravenously injected in a dose of 65 mg/kg. Oral administration of the compound 4 was performed at 48 hours after the injection of streptozotocin. Blood samples were taken at 4 hours after the oral administration, and the blood glucose level in each sample was determined.
# [5] = test system: blood glucose level in non-diabetic rats; assay: Blood glucose level in non-diabetic rats at 90 minutes; conditions: 100 mg/kg oral
# Method: as §2
# The rats were fasted for 16-18 hours, and those weighing 130-160g were used. The compound 4 suspended in 1% CMC was orally administered to the fasted rats, and at 90 minutes after administration blood was drawn from the […] vena cava under anesthesia with sodium pentobarbital. The blood glucose level was determined by the method of Momose, and the serum FFA level was determined by the method of Itaya and Ui as described in J. Lipid Res., 6, 16 (1965), respectively.
# [6] = test system: blood glucose level in alloxan diabetic rats; assay: Blood glucose level in alloxan diabetic rats loaded with much quantity of glucose
# Method: as §2
# Respective dose of the compound 4 (12.5 and 100 mg/kg) together with 2g/kg of glucose was orally administered to the alloxan diabetic rats.
# [7] = test system: serum FFA level in alloxan diabetic rats; assay: Serum FFA level in alloxan diabetic rats, oral administration; conditions: compound 4 at 12.5 and 100 mg/kg, 1.5 and 5 hours
# Method: as §2
# Alloxan diabetic rats were obtained as follows. Namely, 2.5% fresh solution of alloxan (50mg/kg) was injected into the tail vein of male rats, and the rats were daily injected with insulin (1-4 units/day) from the 7th day after the administration of alloxan. The alloxan diabetic rats which were survived for more than 2 months with daily injection of insulin were used. The alloxan diabetic rats were fasted for 24 hours after the last treatment with insulin, and then the compound of the present invention was orally administered. The blood glucose levels were determined by the micro method of Momose before and 2, 4 and 6 hours after the administration.
# The alloxan diabetic rats which were prepared and then preserved for 6 months with insulin as described in the previous experiment were used.
# [8] = test system: serum FFA level in fasted rats; assay: Time course of the serum FFA level in fasted rats (FIG. 1); conditions: 50 mg/kg oral; 0.5, 1, 2, 4 and 6 hours
# Method: as §2
# Further experiment was performed to clarify the effectiveness of the compound 4 on the serum FFA. Blood samples were taken at 0.5, 1, 2, 4 and 6 hours after an oral administration of 50 mg/kg to the fasted rats and the serum FFA levels were determined.
# [9] = test system: blood glucose level in fasted and glucose-loaded rats; assay: Duration of the action of the compound 4 (fasted, glucose-loaded rats); conditions: for Blood glucose before administration: 50 mg/kg oral group, before administration (baseline); for Blood glucose before administration / Blood glucose 2 hours / Blood glucose 4 hours / Blood glucose 6 hours: ± SE
# Method: as §2, §1
# In order to reconfirm the effectiveness of the compounds of the present invention, more detailed examinations were performed on the most representative compound (compound of the Example 4 abbreviated hereinafter as the compound 4). The compound 4 suspended in 1% CMC was orally administered in a dose of 50 mg/kg to the fasted and glucose-loaded rats according to the preceding screening test, and the blood glucose levels at 2, 4 and 6 hours after the administration were determined by the method of Momose.
# [10] = 2 hours, read-out: Reduction % of blood glucose from control after 2 hours
# [11] = 5 hours, read-out: Reduction % of blood glucose from control after 5 hours
# [12] = Rattus norvegicus, 100 mg/kg oral, 4 hours
smiles,measurement,setting,value
"Cc1cc(C)n(C(=O)CNS(=O)(=O)c2ccc(Cl)cc2)n1 [Example 4, 1-(N-p-chlorobenzenesulfonyl-glycyl)-3,5-dimethylpyrazole]",Reduction % from control,[1]; 0.56 mg/kg oral,14.9%
same,Blood glucose,[1]; 0.56 mg/kg oral,77.5 ± 6.6 mg%
same,Reduction % from control,[1]; 1.14 mg/kg oral,19.4%
same,Reduction of the blood glucose level (in words),[1]; 1.14 mg/kg oral,significantly reduced the blood glucose level even at the dose of 1.14 mg/kg
same,Blood glucose,[1]; 1.14 mg/kg oral,73.4 ± 6.4 mg%
same,Reduction % from control,[1]; 3.38 mg/kg oral,20.6%
same,Blood glucose,[1]; 3.38 mg/kg oral,72.3 ± 4.1 mg%
same,Reduction % from control,[1]; 6.75 mg/kg oral,24.0%
same,Blood glucose,[1]; 6.75 mg/kg oral,69.2 ± 7.8 mg%
same,Reduction % from control,[1]; 12.5 mg/kg oral,34.8%
same,Blood glucose,[1]; 12.5 mg/kg oral,59.4 ± 4.0 mg%
same,Reduction % from control,[1]; 25 mg/kg oral,45.4%
same,Blood glucose,[1]; 25 mg/kg oral,49.7 ± 2.8 mg%
same,Reduction % from control,[1]; 50 mg/kg oral,40.5%
same,Blood glucose,[1]; 50 mg/kg oral,54.2 ± 2.9 mg%
same,Blood glucose levels,[2]; 0.8 mg/kg oral once a day,81.6 ± 4.8 mg/dL
same,Blood glucose levels,[2]; 3.1 mg/kg oral once a day,74.4 ± 6.6 mg/dL
same,Blood glucose levels,[2]; 12.5 mg/kg oral once a day,74.8 ± 3.9 mg/dL
same,Blood glucose levels,[2]; 50.0 mg/kg oral once a day,69.9 ± 6.7 mg/dL
same,inhibition in vivo at 100 mg/kg,[3]; [10],41.9%
same,inhibition in vivo at 100 mg/kg,[3]; [11],25.2%
same,Blood glucose level Before,[4]; 6.25 mg/kg oral group,425.3 ± 10.5 mg %
same,Blood glucose level 4 hours,"[4]; 6.25 mg/kg oral, 4 hours",263.2 ± 26.6 mg %
same,Blood glucose level Before,[4]; 25 mg/kg oral group,415.8 ± 12.2 mg %
same,Blood glucose level 4 hours,"[4]; 25 mg/kg oral, 4 hours",251.2 ± 21.8 mg %
same,Blood glucose level Before,[4]; 100 mg/kg oral group,411.5 ± 16.9 mg %
same,Blood glucose level 4 hours,"[4]; 100 mg/kg oral, 4 hours",231.4 ± 33.3 mg %
same,inhibition at 6.25 mg/kg,"[4]; Rattus norvegicus, 6.25 mg/kg oral, 4 hours",61.9 ± 6.2%
same,inhibition at 25 mg/kg,"[4]; Rattus norvegicus, 25 mg/kg oral, 4 hours",59.8 ± 3.8%
same,inhibition at 100 mg/kg,[4]; [12],54.3 ± 6.4%
same,Hypoglycemic effect in streptozotocin-diabetic rats (in words),[4]; 4 hours,markedly reduced the blood glucose level
same,Blood glucose level,[5],66.5 ± 6.0 mg/dL
same,Effect on blood glucose level (in words),[5],significantly lowered the blood glucose level
same,Effect on blood glucose level (in words),"[6]; 12.5 and 100 mg/kg oral with 2g/kg of glucose, 3 hours",significantly lowered at 3 hours after the administration (p<0.005)
same,Effect on serum FFA level in alloxan diabetic rats (in words),[7],"drastically decreased within 1.5 hours, and it was still more lowered even at 5 hours later"
same,"Effect on serum FFA level (in words, FIG. 1)",[8],"markedly lowered the FFA level, and this effect could be observed at 6 hours after"
same,Blood glucose before administration,[9],85.6 ± 3.2 mg%
same,Durability of hypoglycemic effect,"[9]; 50 mg/kg oral, 2, 4 and 6 hours",more durable than that of tolbutamide
same,Blood glucose 2 hours,[9]; 50 mg/kg oral,50.9 ± 1.2 mg%
same,Blood glucose 4 hours,[9]; 50 mg/kg oral,63.1 ± 3.0 mg%
same,Blood glucose 6 hours,[9]; 50 mg/kg oral,74.0 ± 1.6 mg%
"CCCCNC(=O)NS(=O)(=O)c1ccc(C)cc1 [Tolbutamide, reference compound]",Reduction % from control,[1]; 6.75 mg/kg oral,3.8%
same,Blood glucose,[1]; 6.75 mg/kg oral,87.6 ± 6.5 mg%
same,Reduction % from control,[1]; 12.5 mg/kg oral,-1.4%
same,Blood glucose,[1]; 12.5 mg/kg oral,92.4 ± 3.5 mg%
same,Reduction % from control,[1]; 25 mg/kg oral,19.3%
same,Blood glucose,[1]; 25 mg/kg oral,73.5 ± 5.0 mg%
same,Reduction % from control,[1]; 50 mg/kg oral,48.0%
same,Blood glucose,[1]; 50 mg/kg oral,47.4 ± 3.4 mg%
same,Potency at low doses (in words),"[1]; low doses, oral",not potent at low doses
same,Blood glucose levels,[2]; 50.0 mg/kg oral once a day,33.6 ± 6.3 mg/dL
same,inhibition in vivo at 100 mg/kg,[3]; [10],54.1%
same,inhibition in vivo at 100 mg/kg,[3]; [11],52.4%
same,Blood glucose level Before,[4]; 100 mg/kg oral group,413.9 ± 10.2 mg %
same,Blood glucose level 4 hours,"[4]; 100 mg/kg oral, 4 hours",327.8 ± 11.3 mg %
same,inhibition at 100 mg/kg,[4]; [12],79.4 ± 2.7%
same,Hypoglycemic effect in streptozotocin-diabetic rats (in words),[4]; 4 hours,did not have a potent hypoglycemic activity
same,Blood glucose level,[5],57.7 ± 12.1 mg/dL
same,Effect on blood glucose level (in words),[5],significantly lowered the blood glucose level
same,Hypoglycemic effect (in words),"[6]; alloxan diabetic rats, dose not stated",no hypoglycemic effect
same,Effect on serum FFA level in alloxan diabetic rats (in words),[7],no suppressive effect on the serum FFA level
same,"Effect on serum FFA level (in words, FIG. 1)",[8],only a slight suppression
same,Blood glucose before administration,[9],86.2 ± 2.1 mg%
same,Blood glucose 2 hours,[9]; 50 mg/kg oral,44.7 ± 5.0 mg%
same,Blood glucose 4 hours,[9]; 50 mg/kg oral,60.4 ± 5.4 mg%
same,Blood glucose 6 hours,[9]; 50 mg/kg oral,80.7 ± 5.4 mg%

# — US4007201A, “Novel pyrazole derivatives” (Kyorin Pharmaceutical Co. Ltd., priority 1975, dated 1977)
